Laboratory results reported in patent US10849916B2 (priority 2014, dated 2020).

Experiment: Water (moisture) content by Karl Fischer method
Assay type: physicochemical
Settings: for Water content tested by KF method: isolated impurity fraction from preparative HPLC
Experimental: 1. Water content: Water content was estimated by karl fischer (KF) method wherein suitable quantity of methanol was taken in the flask and titrated with karl fischer reagent to neutralize the methanol. Then weighed quantity of the sample is added to the flask and titrated to the end point.

Structure (SMILES) | Water content tested by KF method | Water content in the vials (after drying under vacuum in lyophilizer) | Water content of the input cyclophosphamide monohydrate (input drug substance, before drying)
CCOP(=O)(O)OCCCN1CCNCC1 [0.21 RRT, ethyl (3-(piperazin-1-yl)propyl) hydrogen phosphate] | 2.69 % by weight |  | 
O=P1(N(CCCl)CCCl)NCCCO1 (stereo not shown) [Cyclophosphamide, 2-[bis(2-chloroethyl)amino]tetrahydro-2H-1,3,2-oxazaphosphorine 2-oxide monohydrate] |  | approximately 1% | *Water content of the input cyclophosphamide monohydrate is 6.25% w/w.
CCOCCN(CCCl)P1(=O)NCCCO1 (stereo not shown) [0.75 RRT, 2-((2-chloroethyl)(2-ethoxyethyl)amino)-1,3,2-oxazaphosphinane 2-oxide] | 2.71 % by weight |  | 
